Laboratory results reported in BindingDB's records for doi:10.1021/acs.jmedchem.7b00606 (Griffith University, 2017).

Target: Carbonic anhydrase 2 (Homo sapiens, UniProt P00918)
Assay: Binding affinity to human carbonic anhydrase 2 by surface plasmon resonance spectrometry

- Kd: > 2000 µM
SMILES: O=c1[nH]c(O)c(-c2ccccc2)[nH]1 [5-Phenyl-imidazolidine-2,4-dione]
